We go through eight compounds from US20100330604A1, “QUANTIFICATION OF CHANGES IN THE DEGREES OF ORDER OF CELLULAR AND VIRAL MEMBRANES AND APPLICATIONS TO DIAGNOSIS, TREATMENT AND DRUG SCREENING” (priority 2007, published 2010).

Read-outs that look alike come from different tables or passages of the source.

For test [1], the system named is platelets. Nature of the test: Di-4-[…] fluorescence and Rf (675/575 nm) by flow cytometry on isolated platelets treated in vitro. In kind it is cell-based. In general terms: Flow cytometry measures light scatter and fluorescence of single cells or particles in a stream.
The test system of test [2] is platelets. Nature of the test: Spectral flow cytometry of di-4-[…] stained platelets stimulated by soluble agonists. The class given is cell-based.
Test [3] has as its system platelets. Nature of the test: Di-4-ANEPPDHQ Rf by flow cytometry on platelets of hyperlipidemic patients before and after atorvastatin. In kind it is in vivo, human. Particulars: after 6-week atorvastatin 40 mg.
The subject of test [4] is platelets. The following applies: mean+/-SD.
Test [5] relates to platelets. The following applies: all three patient groups; FIG. 19 panel B.
Test [6] has as its system platelets. Nature of the test: Shear Induced Platelet activation (SIPA): high Rf platelet subpopulation. In kind it is cell-based.
The next test concerns cells. Nature of the test: Kinetics of apoptosis after addition of staurosoprine (di-4-[…] staining, flow cytometry). The class given is cell-based. From the text: Cells are detected, identified and segregated according to their size using forward scatter (FSC) and granularity (SSC). A total of 5000-10000 particles are typically analyzed. The excitation light is provided by a 488 nm laser, but could be achieved with lasers having wavelengths between 400 and 500 nm, among other possibilities. The emission fluorescence associated with liquid ordered domains is acquired between 575+/−25 nm, but the bandwidth could be narrower or wider, for example contained between 500 and 600 nm. The emission fluorescence associated with liquid disordered domains is acquired between 675+/−25 nm, but the bandwidth could be narrower or wider, contained for example between 650 and 750 nm.
Amplifications and gains associated with both fluorescences are adjusted on calibrated fluorescent beads or on a control cell population to obtain a ratio of fluorescence and to allow increases or decreases of the fluorescences and of the ratio. The ratio of fluorescence (Rf) is determined for each particle analysed by computing the ratio between the fluorescence intensity at 675 nm and the fluorescence intensity at 575 nm. By plotting FSC or SSC as a function of Rf for all particles on a logarithmic scale graph, the percentage of apoptotic cells can be determined as being the percentage of cells in the studied population having a Rf higher than a control population.

In test [7] the test system is platelets. The test can be described thus: Di-4-[…] Rf by confocal fluorescent microscopy on platelets. In kind it is cell-based. Particulars: 10 mM, 37° C., 30 min; four donors; p=0.045. The procedure: Referring to FIG. 3, fluorescence intensities were measured by confocal fluorescent microscopy and flow cytometry on control platelets, cholesterol depleted platelets (10 mM Methyl-β-cyclodextrin, 37° C., 30 min) and cholesterol enriched platelets (2 mM Cholesterol-MCD complex, 37° C., 30 min).
A META confocal fluorescence microscope system (Zeiss, Toronto) was used to measure the intensities of fluorescence between 534 to 599 nm and between 650 to 684 nm allowing calculating the fluorescence ratio (Rf) prepared according as described hereinabove. Consistently with previous published data on neutrophils (Jin L et al. Biophys J; 2006), the Rf was higher after depletion compared to control platelets (measures on at least 5 platelets of four different donors; p=0.045) (Panel A).

The test system of the next test is P-selectin. Nature of the test: Expression of platelet activation marker P-selectin on washed platelets. The class given is cell-based. The following applies: 10 mM, 30 minutes, room temperature; after 10 μM TRAP or 50 μM A23187.
The subject of test [8] is activated GpIIbIIIa receptors. Nature of the test: Activation of the activated GpIIbIIIa receptors on washed platelets. Particulars: 10 mM, 30 minutes, room temperature; after 10 μM TRAP or 50 μM A23187. In kind it is cell-based.
Setting [9] is: 10 mM, room temperature, during incubation, N=3.

Regarding `CNc1ccc2oc(C[C@H]3O[C@@]4(CC[C@H]3C)O[C@H]([C@H](C)C(=O)c3ccc[nH]3)[C@H](C)C[C@H]4C)nc2c1C(=O)O` [A23187], the “Rf vs. non activated platelets incubated with TBS” value with platelets [1] (agonist: 10 μM TRAP or 50 μM A23187, p<0.05) is “significantly increased”. Further, the “fluorescence intensities between 515 and 600 nm (more ordered phases) upon activation” value with platelets [2] is “decrease”.

Turning to `CC(C)c1c(C(=O)Nc2ccccc2)c(-c2ccccc2)c(-c2ccc(F)cc2)n1CC[C@@H](O)C[C@@H](O)CC(=O)O` [atorvastatin], in the test on platelets [3] (20 hyperlipidemic patients, compared value 9.2+/-0.1, p=0.01), the “Rf (MLO in platelets)” value is on record as 8.8+/−0.1. The “effects of the cholesterol depletion on the MLO (Rf)” value in the test with platelets [3] (compared value 12.8+/-0.5, p=0.09) is on record as 11.7+/−0.2.

`COC(=O)[C@H](c1ccccc1Cl)N1CCc2sccc2C1` [clopidogrel]: the “ratio of fluorescence (Rf) after administration of clopidogrel” value in the test on platelets [4] (Group A: clopidogrel 300 mg the day before + 75 mg the morning of the procedure, before 8.80+/-0.2, p<0.001) is 8.68+/−0.22; in the test on platelets [4] (Group B: clopidogrel 600 mg the morning of (2 hours before) the procedure, before 8.90+/-0.24, p=0.006), 8.77+/−0.27; with platelets [4] (Group C: clopidogrel 600 mg the day before and 600 mg the morning of the procedure, before 8.69+/-0.29, p=0.88) it was 8.69+/−0.21. Further, the “platelet sub-population (Population 2), about 0.46% of platelets before treatment” value with platelets [5] is on record as “inhibited”.

For the compound `C=C1[C@@H](C)[C@H]2[C@H](Cc3ccccc3)NC(=O)[C@]23[C@H](OC(C)=O)/C=C/[C@@](C)(O)C(=O)[C@@H](C)C/C=C/[C@H]3[C@@H]1O` [cytochalasin D], the “generation of the high Rf platelet population during the shear treatment” value in the test on platelets [6] is listed as “abrogated”.

Take `CCCCC[C@@H](O)[C@H]1C(=O)O[C@H](C)[C@@H](O)/C=C/C=C/C=C/C=C/C=C(\C)[C@@H](O)C[C@H](O)C[C@H](O)C[C@H](O)C[C@H](O)C[C@H](O)C[C@@H]1O` [filipin]: the “Rf measured by flow cytometry” value in the test on platelets [1] (platelets, 30 minutes at 37° C., different concentrations, N=5) is on record as “dose-dependency”.

Regarding `CN[C@@H]1C[C@H]2O[C@@](C)([C@@H]1OC)n1c3ccccc3c3c4c(c5c6ccccc6n2c5c31)C(=O)NC4` [staurosoprine], in the test with cells (FIG. 17 panel G), the “total proportion of intact cells after induction of apoptosis” value is “decreases regularly”. In addition, the “time at which the concentration in microparticles is maximal” value in the test on cells (FIG. 17 panel H) was found to be 24 h.

For the compound Methyl-β-cyclodextrin, in the test on platelets [1] (10 mM, 37° C., 30 min, 10 μM di-4-ANEPPDHQ), the “fluorescence intensity (575 and 675 nm) versus control undepleted platelets” value is reported as “shifted to lower values”. The “Rf vs. control platelets” value in the test with platelets [1] (10 mM, 30 minutes, room temperature, p<0.05 to p<0.001) is reported as “increased”. The “time of cholesterol depletion after which the fluorescence ratio measurement is substantially stable” value in the test with platelets [1] (10 mM, room temperature) was 30 min. For the same compound, in the test on platelets [1] (setting [9]), the “fluorescence associated to the more ordered membrane (575 nm)” value is on record as “decreased” and the “fluorescence emitted at 675 nm” value is “remained stable”. Moreover, in the test with platelets [1] (10 mM, room temperature, N=3), the “ratio of fluorescence (Rf) during the incubation” value is reported as “increased”. For the same compound, the “fluorescence ratio (Rf) calculated from flow cytometry data” value in the test on platelets [1] (cholesterol depletion 10 mM, 37° C., 30 min, N=5) was “increased”. Also, in the test with platelets [7], the “Rf by confocal microscopy compared to control platelets” value is recorded as “higher”. Further, the “expression of platelet activation marker P-selectin” value in the test on P-selectin is on record as “decreased”. Moreover, the “activation of the activated GpIIbIIIa receptors” value in [8] is “decreased”.

In the case of thrombin, in the test with platelets [2] (0.5 U/mL, 30 minutes at 37 C), the “fluorescence at wavelengths larger than 660 nm compared to controls” value is recorded as “increased significantly”; the “fluorescence between 530 and 585 nm compared to controls” value is “decreased significantly”. The “fluorescence intensities between 515 and 600 nm (more ordered phases) upon activation” value in the test with platelets [2] (Thrombin 0.5 U/ml, A23187 10 μM, Thrombin 0.5 U/ml/Convulxin 500 ng/ml, FIG. 15) is “decrease”.
